BindingDB's records for doi:10.1021/ja00082a004 (Nci-Fcrdc, 1994)
pKi: −log10 of the molar value.

Target: T1, Dimer of Gag-Pol polyprotein [489-587] (Human immunodeficiency virus 1, UniProt P12497)
T1 construct: 489-587
Assay: Protease Inhibition Assay
Details: pH 4.7; 30 °C
Procedure: HIV-1 protease activity was measured by a continuous fluorometric assay using the internally quenched fluorogenic substrate DABCYL-GABA-Ser-Gln-Tyr-Pro-Ile-Val-Gln-EDANS (BACHEM; M-1865) and a SPEX FluoroMax spectrofluorometer (excitation 340 nm, emission 490 nm). The apparent Ki was estimated by nonlinear regression (GraFit, Erithacus Software) to the equation for tight-binding inhibitor.

Structure (SMILES)	pKi
CC(C)[C@H](NC(=O)N(C)Cc1ccccn1)C(=O)N[C@@H](Cc1ccccc1)[C@H](O)[C@H](O)[C@H](Cc1ccccc1)NC(=O)[C@@H](NC(=O)N(C)Cc1ccccn1)C(C)C [(2S)-N-[(2S,3R,4S,5S)-3,4-dihydroxy-5-[(2S)-3-methyl-2-{[methyl(pyridin-2-ylmethyl)carbamoyl]amino}butanamido]-1,6-diphenylhexan-2-yl]-3-methyl-2-{[methyl(pyridin-2-ylmethyl)carbamoyl]amino}butanamide]	10.92
CC(C)[C@H](NC(=O)N(C)Cc1ccccn1)C(=O)N[C@@H](Cc1ccccc1)C[C@@H](O)[C@H](Cc1ccccc1)NC(=O)[C@@H](NC(=O)N(C)Cc1ccccn1)C(C)C [(2S)-N-[(2S,3R,5S)-3-hydroxy-5-[(2S)-3-methyl-2-{[methyl(pyridin-2-ylmethyl)carbamoyl]amino}butanamido]-1,6-diphenylhexan-2-yl]-3-methyl-2-{[methyl(pyridin-2-ylmethyl)carbamoyl]amino}butanamide]	11.40
CC(C)[C@H](NC(=O)N(C)Cc1ccccn1)C(=O)N[C@@H](Cc1ccccc1)[C@H](O)[C@@H](O)[C@H](Cc1ccccc1)NC(=O)[C@@H](NC(=O)N(C)Cc1ccccn1)C(C)C [JMC51852 Inhibitor PP]	10.96
CC(C)[C@H](NC(=O)N(C)Cc1ccccn1)C(=O)N[C@@H](Cc1ccccc1)[C@@H](O)[C@H](O)[C@H](Cc1ccccc1)NC(=O)[C@@H](NC(=O)N(C)Cc1ccccn1)C(C)C [(2S)-N-[(2S,3R,4R,5S)-3,4-dihydroxy-5-[(2S)-3-methyl-2-{[methyl(pyridin-2-ylmethyl)carbamoyl]amino}butanamido]-1,6-diphenylhexan-2-yl]-3-methyl-2-{[methyl(pyridin-2-ylmethyl)carbamoyl]amino}butanamide]	9.95
